What all share (type): cell-based
One data set has as its system 22Rv1 cells. Nature of the data set: MTT cell viability assay, 22Rv1 cells. The following applies: 3 days. The method, then:
(§1) Cells were treated in the manner indicated below for the specified period of time. MTT assay was performed as described in Amin et al., Mol. Cancer Ther., 13:341-52 (2014).
(§2) To determine the effects of SH-I-125 on prostate cancer cell growth, 22Rv1 cells were treated with SH-I-125 and cell viability was measured after a period of 3 days. […]. In comparison, non-tumorigenic primary prostate epithelial cells (PrEC) retained 80% viability in the presence of a similar range of doses of SH-I-125, showing that tumorigenic cells are more susceptible to the growth inhibitory properties of SH-I-125 compared to non-tumorigenic cells (FIG. 8B). […] Staurosporine was used as a positive control for cell death induction in live and dead assays (FIG. 9C).
For orientation: Tetrazolium dyes change colour on reduction, which living cells bring about.

Data set [1] in a line: MTT cell viability assay, PrEC cells. The following applies: human, non-tumorigenic primary prostate epithelial cells (PrEC), similar range of doses, read-out: cell viability retained. The method, then: as §1, §2
Data set [2] has as its target T1, AR (Homo sapiens, UniProt P10275).
T1 construct: Androgen-dependent VCaP cells were made to stably express an androgen-response element luciferase reporter (VCaP-ARE-luc); host or cells: VCaP / VCaP-ARE-luc
T1 sequence (P10275 1-920): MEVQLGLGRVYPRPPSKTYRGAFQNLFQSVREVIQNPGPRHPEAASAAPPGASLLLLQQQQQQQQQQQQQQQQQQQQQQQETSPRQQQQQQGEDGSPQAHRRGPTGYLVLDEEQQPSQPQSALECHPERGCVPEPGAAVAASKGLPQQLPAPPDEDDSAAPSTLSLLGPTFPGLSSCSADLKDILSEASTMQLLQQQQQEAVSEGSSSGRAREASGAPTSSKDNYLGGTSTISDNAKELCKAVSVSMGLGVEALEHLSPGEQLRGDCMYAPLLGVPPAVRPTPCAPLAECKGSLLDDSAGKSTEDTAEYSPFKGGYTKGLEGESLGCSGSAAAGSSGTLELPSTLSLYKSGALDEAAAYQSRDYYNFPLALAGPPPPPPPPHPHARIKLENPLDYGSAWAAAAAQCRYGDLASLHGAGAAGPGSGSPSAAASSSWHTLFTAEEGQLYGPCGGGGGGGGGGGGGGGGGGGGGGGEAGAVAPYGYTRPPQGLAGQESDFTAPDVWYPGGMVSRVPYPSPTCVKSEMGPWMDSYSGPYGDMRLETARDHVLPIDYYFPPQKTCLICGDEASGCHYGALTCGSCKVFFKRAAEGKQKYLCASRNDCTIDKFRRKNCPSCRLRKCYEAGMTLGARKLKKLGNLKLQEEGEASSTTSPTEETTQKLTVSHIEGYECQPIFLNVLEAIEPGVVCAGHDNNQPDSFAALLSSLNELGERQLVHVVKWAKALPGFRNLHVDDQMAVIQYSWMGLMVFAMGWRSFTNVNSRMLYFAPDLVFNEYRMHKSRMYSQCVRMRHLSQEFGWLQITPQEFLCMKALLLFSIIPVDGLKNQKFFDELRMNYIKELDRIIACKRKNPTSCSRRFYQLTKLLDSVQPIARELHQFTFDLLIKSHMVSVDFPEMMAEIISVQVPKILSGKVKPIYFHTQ
Nature of the data set: Immunofluorescence staining and Western blot of AR and PSA in VCaP cells. The note with it: DHT 1 nM, MDV3100 10 μM or SH-I-125 1 μM, 24 hours. The method, then:
Androgen receptor (AR) and PSA expression levels were assessed.
AR and PSA expression levels were assessed. B-actin was used as a loading control.

In data set [3] the test system is VP16-Gal4DBD fusion protein. Description: VP16-Gal4DBD / UAS-luc reporter, negative control. The note with it: SH-I-125 1 μM, 24 hours. The method, then:
22Rv1 cells were co-transfected with VP16 activation domain-Gal4DBD fusion protein and Gal4UAS-TATA-luciferase reporter and treated with SH-I-125 (1 μM) for 24 hours. Luciferase activity was measured and normalized with Renilla luciferase. Columns, mean of three independent experiments with quadruplicate samples; bars, SEM.
The N-terminal domain of the AR (AR NTD) is known to be its transactivation domain, essential for ligand-independent AR activation. Mahanine is able to inhibit AR activation induced by ligand-independent mechanisms such as forskolin and interleukin-6, which activate the AR NTD. […] As a negative control, a constitutively active VP16-Gal4DBD fusion protein and the UAS-luc reporter were co-expressed in […]. […] […].

Another data set deals with AR and AR-V7. Nature of the data set: Quantitative RT-PCR of AR and AR-V7 mRNA in 22Rv1 cells. The note with it: SH-I-125 1 μM, 1-3 days, normalized to GAPDH. As to the method: FIG. 12D is a graph showing the mRNA expression of AR and AR-V7 after treating 22Rv1 cells with SH-I-125 (1 μM) for 24 and 72 hrs. The AR and AR-V7 expression levels were assessed by qRTPCR and normalized to GAPDH expression levels.
Quantitative RT-PCR was performed using the protocol and the primers as described in Amin et al., Mol. Cancer Ther., 13:341-52 (2014).
To establish a mechanism by which SH-I-125 caused a decline in AR and AR-V7 levels, the relative expression of AR and AR-V7 in 22Rv1 cells that had been treated with SH-I-125 for a period of 1-3 days was measured. […] To determine whether proteasomal mechanisms are responsible for the decline in AR and AR-V7 levels, 22Rv1 cells were treated with 5 μM SH-I-125 for a period of 48 hours in the presence of proteasome inhibitor, MG132.

Another data set concerns VCaP-MDVR cells. Nature of the data set: Caspase-Glo 3/7 activity assay, VCaP-MDVR cells. The following applies: SH-I-125 1 μM, 3 days. The method, then: Caspase 3/7 activity was measured using Caspase-Glo 3/7 substrates. Data represent mean of three independent experiments with quadruplicate samples; bars, SEM.
The emergence of resistance to clinical anti-androgens is an ongoing problem in the treatment of castration-resistant prostate cancer.

The test system of data set [4] is AR. Description: VCaP-MDVR-ARE-luc luciferase reporter assay. The following applies: VCaP-MDVR-ARE-luc cells, range of doses, 24 hours. The method, then: (§3) […]. Luciferase activity was measured and plotted as a percentage of control. Data represent the mean of three independent experiments with quadruplicate samples; bars, SEM. ***, p value <0.001 determined by ANOVA.
(§4) VCaP-MDVR and 22Rv1-MDVR stably expressing ARE-luciferase construct (VCaP-MDVR-ARE-luc and 22Rv1-MDVR-ARE-luc) were generated as described above in the Materials and Methods section. […].
(Reporter assays use an easily measured gene product as a stand-in for the process of interest.)

Data set [5] deals with AR. Nature of the data set: 22Rv1-MDVR-ARE-luc luciferase reporter assay. The following applies: 22Rv1-MDVR-ARE-luc cells, range of doses, 24 hours. The method, then:
as §3, §4

With `COc1ccc2c(c1)[nH]c1c(C)c(OS(=O)(=O)c3cccc4ccccc34)ccc12` [SH-I-125, 7-methoxy-1-methyl-9H-carbazol-2-yl naphthalene-1-sulfonate], in the data set with 22Rv1 cells (MTT), the “potency relative to natural-derived and synthetically-derived mahanine in preventing growth” value is “ten-fold”. The viability (as a rule, the share of living cells, or the viability signal relative to a control) at 1 µM in the data set with 22Rv1 cells (Homo sapiens, 72 h, dose of 1 μM, read-out: cell viability, of control) came out at 50%. Also, the viability at 3 days in data set [1] turned out to be 80%. Further, at AR [2], the AR nuclear localization entry is given as “blocked AR nuclear localization” and the PSA expression entry was “inhibited PSA expression”. In data set [3], the VP16-Gal4DBD luciferase activity result is “did not affect luciferase activity”. Further, the “AR and AR-V7 message (mRNA) levels” value in the data set with AR and AR-V7 is “did not affect the message levels”. For the same compound, the “caspase 3/7 activation” value with VCaP-MDVR cells is “inducing caspase activation”. Besides, in the data set with AR [4], the “inhibitory effect on AR activity (luciferase)” value is recorded as “retained its inhibitory effect”. Also, the “luciferase activity (AR activity)” value in the data set with AR [5] is on record as “retained its inhibitory effect”.
